Measured values published in US20110152342A1, “STABILIZED PHARMACEUTICAL COMPOSITION” (priority 2008, published 2011).

Test: Critical relative humidity of sugar alcohols determined at 37° C.
Type: physicochemical
Settings: lowest humidity at which an increase in moisture content is observed after 72 hours
Procedure: As such sugar alcohol, preferably used herein include those having a critical relative humidity as determined at 37° C. of not less than 70% and further preferably used herein are those having a critical relative humidity as determined at 37° C. of not less than 85%. […] For instance, the critical relative humidity can be determined by introducing samples (obtained after drying at 80° C. overnight) of about 1 g each into weighing bottles, placing them in thermo-hygrostats which have been set at the following relative humidity (RH) values: 37° C./40% RH, 37° C./45% RH, 37° C./55% RH, 37° C./65% RH, 37° C./70% RH, 37° C./75% RH, 37° C./80% RH, 37° C./85% RH, 37° C./90% RH, 37° C./95% RH and 37° C./98% RH, respectively (all of the chambers are of the same type: ETAC FX201P), allowing them to stand under such conditions over 72 hours, calculating the increase in the moisture content of each sample at this stage, and determining the lowest humidity at which an increase in the moisture content is observed, the resulting lowest humidity being defined to be the critical relative humidity of the sugar alcohol thus tested. […] The examples of such sugar alcohols having a critical relative humidity, as determined at 37° C., of not less than 70% are erythritol, xylitol, mannitol, maltitol, lactitol, and the like. […]

OC[C@@H](O)[C@@H](O)[C@H](O)[C@H](O)CO [mannitol]
critical relative humidity: not less than 98%

OC[C@@H](O)[C@@H](O)[C@H](O)[C@@H](O)CO [sorbitol]
critical relative humidity: 65%
